Measurements from US20080207677A1, “Napthyridine Compounds As Rock Inhibitors” (GPC BIOTECH AG, priority 2004, published 2008).

Experiments:
[1] = molecular target: T1, recombinant human ROCK2 (amino acids 1-530, aminoterminal 6×His tag) (Homo sapiens, UniProt O75116); test: Determination of ROCK kinase activity, IMAP assay, ROCK2 human; assay type: biochemical; settings: for IC50: in vitro kinase assay, ATP 34.8 μM; for inhibition at 10 µM: % inhibition of the protein kinase ROCK2 at a concentration of 10 μM
T1 construct: recombinant human ROCK2 (amino acids 1-530, aminoterminal 6×His tag); 6xHis (N)
T1 sequence (O75116 1-530): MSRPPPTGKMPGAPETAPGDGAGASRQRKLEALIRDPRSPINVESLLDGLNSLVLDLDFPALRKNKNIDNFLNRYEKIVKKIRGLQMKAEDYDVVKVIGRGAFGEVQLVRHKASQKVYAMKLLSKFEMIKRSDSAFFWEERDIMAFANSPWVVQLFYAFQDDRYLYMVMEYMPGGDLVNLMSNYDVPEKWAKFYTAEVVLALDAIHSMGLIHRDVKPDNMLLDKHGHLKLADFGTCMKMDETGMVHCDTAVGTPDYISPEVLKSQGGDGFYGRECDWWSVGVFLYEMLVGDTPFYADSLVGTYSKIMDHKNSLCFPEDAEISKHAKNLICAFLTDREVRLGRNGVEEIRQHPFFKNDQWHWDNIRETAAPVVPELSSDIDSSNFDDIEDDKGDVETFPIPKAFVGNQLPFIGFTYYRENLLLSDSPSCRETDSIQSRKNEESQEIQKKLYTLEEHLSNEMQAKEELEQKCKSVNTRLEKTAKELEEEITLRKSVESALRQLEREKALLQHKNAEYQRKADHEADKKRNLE
Experimental: (§1) Determination of ROCK Kinase Activity
(§2) IC50 values for the various compounds were determined with recombinant human ROCK1 (amino acids 1-555, aminoterminal 6×His tag) and recombinant human ROCK2 (amino acids 1-530, aminoterminal 6×His tag) under the following reaction conditions:
• 11) Add 6 μl 8/6 fold concentrated Substrate+8/6 fold concentrated ATP in 1 fold concentrated Reaction Buffer to each well of Assay Plate • 12) Add 10.8 nl 740 fold concentrated Inhibitor in 100% DMSO to each well except to C− and C+ wells using pintool • 13) Add 10.8 nl 100% DMSO to C− and C+ wells using pintool • 14) Add 2 μl Reaction Buffer to C− wells • 15) Add 2 μl 4 fold concentrated Kinase in Reaction Buffer to each well except C− wells • 16) Incubate according to Reaction Time at room temperature • 17) Add 15 μl IMAP Binding Solution to each well • 18) Incubate according to IMAP Incubation Time at room temperature • 19) Measure Fluorescence Polarization • 20) Measure Fluorescence Intensity

[2] = molecular target: T2, recombinant human ROCK1 (amino acids 1-555, aminoterminal 6×His tag) (Homo sapiens, UniProt Q13464); test: Determination of ROCK kinase activity, IMAP assay, ROCK1 human; assay type: biochemical; settings: in vitro kinase assay, ATP 38.9 μM
T2 construct: recombinant human ROCK1 (amino acids 1-555, aminoterminal 6×His tag); 6xHis (N)
T2 sequence (Q13464 1-555): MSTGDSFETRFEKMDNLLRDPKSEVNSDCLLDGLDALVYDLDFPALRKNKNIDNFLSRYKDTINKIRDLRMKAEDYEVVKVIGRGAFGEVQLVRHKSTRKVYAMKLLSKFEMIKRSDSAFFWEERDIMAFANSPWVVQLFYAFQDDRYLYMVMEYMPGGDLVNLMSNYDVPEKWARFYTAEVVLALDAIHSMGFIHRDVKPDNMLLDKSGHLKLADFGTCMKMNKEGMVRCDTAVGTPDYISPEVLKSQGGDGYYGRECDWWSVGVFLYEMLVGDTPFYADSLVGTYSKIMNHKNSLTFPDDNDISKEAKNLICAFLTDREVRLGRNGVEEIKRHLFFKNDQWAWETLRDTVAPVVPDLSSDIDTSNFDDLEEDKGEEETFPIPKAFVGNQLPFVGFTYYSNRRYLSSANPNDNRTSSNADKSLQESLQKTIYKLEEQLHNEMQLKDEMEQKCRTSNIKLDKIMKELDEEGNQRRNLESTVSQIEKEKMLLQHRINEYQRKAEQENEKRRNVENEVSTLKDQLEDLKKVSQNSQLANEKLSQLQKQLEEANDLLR
Experimental: as §1, §2
• 1) Add 6 μl 8/6 fold concentrated Substrate+8/6 fold concentrated ATP in 1 fold concentrated Reaction Buffer to each well of Assay Plate • 2) Add 10.8 nl 740 fold concentrated Inhibitor in 100% DMSO to each well except to C− and C+ wells using pintool • 3) Add 10.8 nl 100% DMSO to C− and C+ wells using pintool • 4) Add 2 μl Reaction Buffer to C− wells • 5) Add 2 μl 4 fold concentrated Kinase in Reaction Buffer to each well except C− wells • 6) Incubate according to Reaction Time at room temperature • 7) Add 15 μl IMAP Binding Solution to each well • 8) Incubate according to IMAP Incubation Time at room temperature • 9) Measure Fluorescence Polarization • 10) Measure Fluorescence Intensity

| SMILES | IC50 [1] | IC50 [2] | inhibition at 10 µM [1] |
| --- | --- | --- | --- |
| C[C@H](NC(=O)c1ccc2cnccc2n1)c1ccccc1 [Compound 8, [1,6]Naphthyridine-2-carboxylic acid ((S)-1-phenyl-ethyl)-amide] | – | – | 37% |
| CC(NC(=O)c1ccc2cnccc2n1)c1ccccc1 (stereo not drawn) [Compound 4, [1,6]Naphthyridine-2-carboxylic acid (1-phenyl-ethyl)-amide] | 1590 nM | 710 nM | 81% |
| CCC(NC(=O)c1ccc2cnccc2n1)c1cccc(Cl)c1 (stereo not drawn) [[1,6]Naphthyridine-2-carboxylic acid 1-(3-chlorophenyl)-propylamide] | 380 nM | 300 nM | – |
| O=C(NCc1cccs1)c1ccc2cnccc2n1 [[1,6]Naphthyridine-2-carboxylic acid thiophen-2-yl-methylamide] | 7840 nM | 1970 nM | – |
| COc1cccc(CNC(=O)c2ccc3cnccc3n2)c1 [[1,6]Naphthyridine-2-carboxylic acid 3-methoxy-benzylamide] | 3100 nM | 3340 nM | – |
| COc1ccc(C(C)NC(=O)c2ccc3cnccc3n2)cc1 (stereo not drawn) [[1,6]Naphthyridine-2-carboxylic acid 1-(4-methoxyphenyl)-ethylamide] | 10700 nM | – | – |
| O=C(NCCc1ccc(Br)cc1)c1ccc2cnccc2n1 [[1,6]Naphthyridine-2-carboxylic acid 2-(4-bromo-phenyl)-ethylamide] | 1520 nM | 1500 nM | – |
| CCC(NC(=O)c1ccc2cnccc2n1)c1ccccc1 (stereo not drawn) [[1,6]Naphthyridine-2-carboxylic acid 1-phenyl-propylamide] | 500 nM | 660 nM | – |
| CCC(NC(=O)c1ccc2cnccc2n1)c1cccs1 (stereo not drawn) [[1,6]Naphthyridine-2-carboxylic acid 1-(thiophen-2-yl)-propylamide] | 1010 nM | – | – |
| NC(=O)C(Cc1ccccc1)NC(=O)c1ccc2cnccc2n1 (stereo not drawn) [Compound 5, [1,6]Naphthyridine-2-carboxylic acid (1-carbamoyl-2-phenyl-ethyl)-amide] | – | – | 62% |
| O=C(NCc1ccccc1F)c1ccc2cnccc2n1 [Compound 2, [1,6]Naphthyridine-2-carboxylic acid 2-fluoro-benzylamide] | 2080 nM | 790 nM | – |
| CC[C@@H](NC(=O)c1ccc2cnccc2n1)c1ccccc1 [(R)-[1,6]Naphthyridine-2-carboxylic acid 1-phenyl-propylamide] | 160 nM | – | – |
| CC(NC(=O)c1ccc2cnccc2n1)c1ccsc1 (stereo not drawn) [[1,6]Naphthyridine-2-carboxylic acid 1-(thiophen-3-yl)-ethylamide] | 1910 nM | – | – |
| CC(NC(=O)c1ccc2cnccc2n1)c1ccc(F)cc1 (stereo not drawn) [[1,6]Naphthyridine-2-carboxylic acid 1-(4-fluorophenyl)-ethylamide] | 340 nM | 940 nM | – |
| COc1ccc(CNC(=O)c2ccc3cnccc3n2)cc1 [[1,6]Naphthyridine-2-carboxylic acid 4-methoxy-benzylamide] | 5120 nM | 6040 nM | – |
| NC(=O)[C@H](Cc1ccc(O)cc1)NC(=O)c1ccc2cnccc2n1 [(S)-[1,6]Naphthyridine-2-carboxylic acid [1-carbamoyl-2-(4-hydroxy-phenyl)-ethyl]-amide] | 4260 nM | 6830 nM | – |

Results, then the molecule that gave them:

| IC50 [1] | IC50 [2] | inhibition at 10 µM [1] | SMILES |
| --- | --- | --- | --- |
| 410 nM | – | – | Cc1ccc([C@@H](C)NC(=O)c2ccc3cnccc3n2)cc1 [(R)-[1,6]Naphthyridine-2-carboxylic acid 1-(4-methylphenyl)-ethylamide] |
| 5700 nM | 1910 nM | – | O=C(NCCc1ccc(Cl)cc1)c1ccc2cnccc2n1 [[1,6]Naphthyridine-2-carboxylic acid 2-(4-chloro-phenyl)-ethylamide] |
| 7230 nM | 2240 nM | – | O=C(NCc1ccccc1Br)c1ccc2cnccc2n1 [[1,6]Naphthyridine-2-carboxylic acid 2-bromo-benzylamide] |
| 1410 nM | 1290 nM | – | Cc1ccc(C(C)NC(=O)c2ccc3cnccc3n2)cc1 (stereo not drawn) [[1,6]Naphthyridine-2-carboxylic acid 1-(4-methylphenyl)-ethylamide] |
| 3830 nM | 4770 nM | – | O=C(NCc1ccccc1Cl)c1ccc2cnccc2n1 [[1,6]Naphthyridine-2-carboxylic acid 2-chloro-benzylamide] |
| 920 nM | 1130 nM | 88% | C[C@@H](NC(=O)c1ccc2cnccc2n1)c1ccccc1 [Compound 7, [1,6]Naphthyridine-2-carboxylic acid ((R)-1-phenyl-ethyl)-amide] |
| 880 nM | 2320 nM | – | C[C@@H](NC(=O)c1ccc2cnccc2n1)c1ccc2ccccc2c1 [(R)-[1,6]Naphthyridine-2-carboxylic acid 1-(naphth-2-yl)-ethylamide] |
| 890 nM | 970 nM | – | CC(NC(=O)c1ccc2cnccc2n1)c1ccc(Br)cc1 (stereo not drawn) [[1,6]Naphthyridine-2-carboxylic acid 1-(4-bromo-phenyl)-ethylamide] |
| 7680 nM | 3150 nM | – | O=C(NCc1ccccc1)c1ccc2cnccc2n1 [[1,6]Naphthyridine-2-carboxylic acid benzylamide] |
| 1870 nM | 1460 nM | – | O=C(NCc1ccc2c(c1)OCO2)c1ccc2cnccc2n1 [[1,6]Naphthyridine-2-carboxylic acid (benzo[1,3]dioxol-5-ylmethyl)-amide] |
| 1260 nM | 790 nM | – | CCC(NC(=O)c1ccc2cnccc2n1)c1ccc(C)cc1 (stereo not drawn) [[1,6]Naphthyridine-2-carboxylic acid 1-(4-methylphenyl)-propylamide] |
| 1330 nM | 1370 nM | – | O=C(NCc1ccc(Br)cc1)c1ccc2cnccc2n1 [Compound 3, [1,6]Naphthyridine-2-carboxylic acid 4-bromo-benzylamide] |
| 5640 nM | 8160 nM | – | NC(=O)[C@H](Cc1ccccc1)NC(=O)c1ccc2cnccc2n1 [(S)-[1,6]Naphthyridine-2-carboxylic acid (1-carbamoyl-2-phenyl-ethyl)-amide] |
| 2230 nM | 1280 nM | – | Cc1ccc(CNC(=O)c2ccc3cnccc3n2)cc1 [[1,6]Naphthyridine-2-carboxylic acid 4-methyl-benzylamide] |
| 770 nM | 1100 nM | – | CC(NC(=O)c1ccc2cnccc2n1)c1ccc(Cl)cc1 (stereo not drawn) [[1,6]Naphthyridine-2-carboxylic acid 1-(4-chlorophenyl)-ethylamide] |
| 1040 nM | 910 nM | 87% | O=C(NCc1cccc(Br)c1)c1ccc2cnccc2n1 [Compound 1, [1,6]Naphthyridine-2-carboxylic acid 3-bromo-benzylamide] |
| 480 nM | 1260 nM | – | CCC(NC(=O)c1ccc2cnccc2n1)c1ccc(Cl)cc1 (stereo not drawn) [[1,6]Naphthyridine-2-carboxylic acid 1-(4-chlorophenyl)-propylamide] |
| 13000 nM | – | – | CCOc1ccccc1CNC(=O)c1ccc2cnccc2n1 [[1,6]Naphthyridine-2-carboxylic acid 2-ethoxy-benzylamide] |
| 2570 nM | 610 nM | – | O=C(NCc1cccc(Cl)c1)c1ccc2cnccc2n1 [[1,6]Naphthyridine-2-carboxylic acid 3-chloro-benzylamide] |
| – | – | 65% | NC(=O)C(Cc1ccc(Cl)cc1)NC(=O)c1ccc2cnccc2n1 (stereo not drawn) [Compound 6, [1,6]Naphthyridine-2-carboxylic acid [1-carbamoyl-2-(4-chloro-phenyl)-ethyl]-amide] |
| 2110 nM | 2050 nM | – | O=C(NCc1ccc(Cl)cc1)c1ccc2cnccc2n1 [[1,6]Naphthyridine-2-carboxylic acid 4-chloro-benzylamide] |
| 360 nM | – | – | C[C@@H](NC(=O)c1ccc2cnccc2n1)c1ccc(Cl)cc1 [(R)-[1,6]Naphthyridine-2-carboxylic acid 1-(4-chloro-phenyl)-ethylamide] |
